Data: ChEMBL document CHEMBL3045979, “Synthesis and antimicrobial activities of highly functionalised novel -lactam and thiazolidine-grafted tetrahydrobenzothiophenes” (2013)

Key:
Type in all cases: functional
Escherichia coli = test: Antibacterial activity against Escherichia coli ATCC 35218 assessed as growth inhibition at 10 ug/mL after 24 hr by agar disc diffusion method; details: ATCC 35218, 24 h, read-out: DIZ
Bacillus spizizenii = test: Antibacterial activity against Bacillus subtilis subsp. spizizenii ATCC 6633 assessed as growth inhibition at 10 ug/mL after 24 hr by agar disk diffusion method; details: ATCC 6633, 24 h, read-out: DIZ
Aspergillus fumigatus = test: Antifungal activity against Aspergillus fumigatus ATCC 28212 assessed as growth inhibition at 10 ug/mL after 72 hr by agar cup plate method; details: ATCC 28212, 72 h, read-out: DIZ
Aspergillus niger = test: Antifungal activity against Aspergillus niger ATCC 16404 assessed as growth inhibition at 10 ug/mL after 72 hr by agar cup plate method; details: ATCC 16404, 72 h, read-out: DIZ

| SMILES | zone of inhibition at 10 µg/mL (Escherichia coli) [mm] | zone of inhibition at 10 µg/mL (Bacillus spizizenii) [mm] | zone of inhibition at 10 µg/mL (Aspergillus fumigatus) [mm] | zone of inhibition at 10 µg/mL (Aspergillus niger) [mm] |
| --- | --- | --- | --- | --- |
| CS(=O)(=O)Nc1sc2c(c1C(=O)NN1C(=O)C(Cl)C1c1ccccc1)CCCC2 (stereo unspecified) | 6 | 6 | 4 | 13 |
| CS(=O)(=O)Nc1sc2c(c1C(=O)NN1C(=O)CSC1c1cc3ccccc3nc1Cl)CCCC2 (stereo unspecified) | 8 | 6 | 8 | 19 |
| CS(=O)(=O)Nc1sc2c(c1C(=O)NN1C(=O)CSC1c1cccc([N+](=O)[O-])c1)CCCC2 (stereo unspecified) | 7 | 7 | 6 | 14 |
| CS(=O)(=O)Nc1sc2c(c1C(=O)NN1C(=O)C(Cl)C1c1c[nH]c3ccccc13)CCCC2 (stereo unspecified) | 9 | 7 | 7 | 12 |
| CS(=O)(=O)Nc1sc2c(c1C(=O)NN1C(=O)CSC1c1ccccc1)CCCC2 (stereo unspecified) | 6 | 5 | 5 | 9 |
| CS(=O)(=O)Nc1sc2c(c1C(=O)NN1C(=O)CSC1c1coc3ccccc3c1=O)CCCC2 (stereo unspecified) | 7 | 7 | 4 | 12 |
| CS(=O)(=O)Nc1sc2c(c1C(=O)NN1C(=O)C(Cl)C1c1ccc(Cl)cc1)CCCC2 (stereo unspecified) | 9 | 8 | 5 | 13 |
| CS(=O)(=O)Nc1sc2c(c1C(=O)NN1C(=O)CSC1c1ccc(Cl)cc1)CCCC2 (stereo unspecified) | 8 | 8 | 7 | 13 |
| CS(=O)(=O)Nc1sc2c(c1C(=O)NN1C(=O)CSC1c1ccc([N+](=O)[O-])cc1)CCCC2 (stereo unspecified) | 10 | 8 | 8 | 15 |
| COc1ccc(C2C(Cl)C(=O)N2NC(=O)c2c(NS(C)(=O)=O)sc3c2CCCC3)cc1 (stereo unspecified) | 8 | 6 | 6 | 12 |
| CS(=O)(=O)Nc1sc2c(c1C(=O)NN1C(=O)C(Cl)C1c1ccccc1Cl)CCCC2 (stereo unspecified) | 7 | 7 | 6 | 15 |
| CC(=O)N1CCN(c2ccc(OCC3COC(Cn4ccnc4)(c4ccc(Cl)cc4Cl)O3)cc2)CC1 (stereo unspecified) [KETOCONAZOLE] | – | – | 10 | 25 |
| COc1ccc(C2C(Cl)C(=O)N2NC(=O)c2c(NS(C)(=O)=O)sc3c2CCCC3)cc1OC (stereo unspecified) | 8 | 7 | 9 | 21 |
| CS(=O)(=O)Nc1sc2c(c1C(=O)NN1C(=O)CSC1c1c[nH]c3ccccc13)CCCC2 (stereo unspecified) | 10 | 6 | 6 | 18 |
| O=C(O)c1cn(C2CC2)c2cc(N3CCNCC3)c(F)cc2c1=O [CIPROFLOXACIN] | 12 | 9 | – | – |
| CS(=O)(=O)Nc1sc2c(c1C(=O)NN1C(=O)C(Cl)C1c1cc3ccccc3nc1Cl)CCCC2 (stereo unspecified) | 6 | 6 | 6 | 22 |
| CS(=O)(=O)Nc1sc2c(c1C(=O)NN1C(=O)C(Cl)C1c1coc3ccccc3c1=O)CCCC2 (stereo unspecified) | 8 | 6 | 7 | 14 |
| CS(=O)(=O)Nc1sc2c(c1C(=O)NN1C(=O)C(Cl)C1c1ccc([N+](=O)[O-])cc1)CCCC2 (stereo unspecified) | 10 | 8 | 6 | 16 |
| Clc1ccccc1C(c1ccccc1)(c1ccccc1)n1ccnc1 [CLOTRIMAZOLE] | – | – | 20 | 21 |
| CS(=O)(=O)Nc1sc2c(c1C(=O)NN1C(=O)C(Cl)C1c1cccc([N+](=O)[O-])c1)CCCC2 (stereo unspecified) | 10 | 7 | 8 | 18 |
| COc1ccc(C2SCC(=O)N2NC(=O)c2c(NS(C)(=O)=O)sc3c2CCCC3)cc1 (stereo unspecified) | 11 | 5 | 6 | 14 |
| COc1ccc(C2SCC(=O)N2NC(=O)c2c(NS(C)(=O)=O)sc3c2CCCC3)cc1OC (stereo unspecified) | 7 | 6 | 6 | 12 |
| CS(=O)(=O)Nc1sc2c(c1C(=O)NN1C(=O)CSC1c1ccccc1Cl)CCCC2 (stereo unspecified) | 11 | 6 | 6 | 20 |
